According to ChEMBL document CHEMBL3745645, “Synthesis, in vitro antitumor activity, dihydrofolate reductase inhibition, DNA intercalation and structure-activity relationship studies of 1,3,5-triazine analogues” (Bioorg Med Chem Lett, 2016):
Active and inactive are the calls of the source. The calls are words filed in the database; no cut-off is given here.

Experiments:
NCI-H460 = assay: Cytotoxicity against human NCI-H460 cells at 10 uM after 48 hrs by SRB assay; type: functional; details: NCI-H460, 48 h, read-out: GI
A549 = assay: Cytotoxicity against human A549 cells after 48 hrs by SRB assay; type: functional; details: A549, 48 h, pooled result: one value given for 8 cell lines, strains, targets or settings
SK-MEL-2 = assay: Cytotoxicity against human SK-MEL-2 cells at 10 uM after 48 hrs by SRB assay; type: functional
SR [1] = assay: Cytotoxicity against human SR cells after 48 hrs by SRB assay; type: functional
MDA-MB-231 = assay: Cytotoxicity against human MDA-MB-231 cells at 10 uM after 48 hrs by SRB assay; type: functional
MCF7 [2] = assay: Cytotoxicity against human MCF7 cells at 10 uM after 48 hrs by SRB assay; type: functional; details: MCF7, 48 h, read-out: GI
[3] = Cytotoxicity against human SF268 cells after 48 hrs by SRB assay; type: functional; details: SF-268, 48 h, pooled result: one value given for 6 cell lines, strains, targets or settings
[4] = Cytotoxicity against human PC3 cells after 48 hrs by SRB assay; type: functional; details: PC-3, 48 h; for GI50 / TGI: pooled result: one value given for 2 cell lines, strains, targets or settings
NCI-H522 = assay: Cytotoxicity against human NCI-H522 cells at 10 uM after 48 hrs by SRB assay; type: functional
K562 [5] = assay: Cytotoxicity against human K562 cells after 48 hrs by SRB assay; type: functional; details: K562, 48 h
Calf thymus DNA [6] = assay: Binding affinity to calf thymus DNA by fluorescence spectrophotometric analysis; type: nucleic-acid assay; details: Bos taurus
[7] = Cytotoxicity against human MOLT4 cells after 48 hrs by SRB assay; type: functional; details: MOLT-4, 48 h, read-out: LC50 (the source's name)
ACHN = assay: Cytotoxicity against human ACHN cells at 10 uM after 48 hrs by SRB assay; type: functional; details: read-out: GI
[8] = Cytotoxicity against human MOLT4 cells at 10 uM after 48 hrs by SRB assay; type: functional; details: MOLT-4, 48 h, read-out: GI
[9] = Cytotoxicity against human IGROV1 cells at 10 uM after 48 hrs by SRB assay; type: functional; details: IGROV-1, 48 h, read-out: GI
KM12 = assay: Cytotoxicity against human KM12 cells at 10 uM after 48 hrs by SRB assay; type: functional; details: KM12, 48 h, read-out: GI
Dihydrofolate reductase = target: T1, Dihydrofolate reductase (Homo sapiens, UniProt P00374); assay: Inhibition of human recombinant DHFR expressed in Escherichia coli by spectrophotometric analysis
T1 sequence (P00374 whole entry): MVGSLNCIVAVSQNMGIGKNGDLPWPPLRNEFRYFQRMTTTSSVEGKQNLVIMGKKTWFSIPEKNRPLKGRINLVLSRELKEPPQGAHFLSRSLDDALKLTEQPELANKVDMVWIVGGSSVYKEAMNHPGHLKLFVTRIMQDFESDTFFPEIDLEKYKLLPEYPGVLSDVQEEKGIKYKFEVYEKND

[10] = Cytotoxicity against human SW620 cells at 10 uM after 48 hrs by SRB assay; type: functional; details: SW-620, 48 h, read-out: GI
MCF7 [11] = assay: Cytotoxicity against human MCF7 cells after 48 hrs by SRB assay; type: functional; details: MCF7, 48 h, pooled result: one value given for 6 cell lines, strains, targets or settings
[12] = Cytotoxicity against human HL-60(TB) cells after 48 hrs by SRB assay; type: functional; details: HL-60, 48 h, read-out: LC50 (the source's name)
K562 [13] = assay: Cytotoxicity against human K562 cells at 10 uM after 48 hrs by SRB assay; type: functional; details: K562, 48 h, read-out: GI
T47D = assay: Cytotoxicity against human T47D cells at 10 uM after 48 hrs by SRB assay; type: functional
A498 = assay: Cytotoxicity against human A498 cells at 10 uM after 48 hrs by SRB assay; type: functional
Calf thymus DNA [14] = assay: Binding affinity to calf thymus DNA assessed as melting temperature by spectrophotometric analysis (reference value: 60 degC); type: nucleic-acid assay; details: Bos taurus
Malme-3M = assay: Cytotoxicity against human MALME-3M cells at 10 uM after 48 hrs by SRB assay; type: functional
SR [15] = assay: Cytotoxicity against human SR cells at 10 uM after 48 hrs by SRB assay; type: functional
[16] = Cytotoxicity against human OVCAR5 cells at 10 uM after 48 hrs by SRB assay; type: functional; details: OVCAR-5, 48 h, read-out: GI
MDA-MB-468 = assay: Cytotoxicity against human MDA-MB-468 cells at 10 uM after 48 hrs by SRB assay; type: functional
HT-29 = assay: Cytotoxicity against human HT-29 cells at 10 uM after 48 hrs by SRB assay; type: functional
[17] = Cytotoxicity against human HOP92 cells at 10 uM after 48 hrs by SRB assay; type: functional; details: HOP-92, 48 h, read-out: GI
786-0 = assay: Cytotoxicity against human 786-0 cells at 10 uM after 48 hrs by SRB assay; type: functional
[18] = Cytotoxicity against human OVCAR8 cells at 10 uM after 48 hrs by SRB assay; type: functional; details: OVCAR-8, 48 h, read-out: GI
SK-MEL-5 = assay: Cytotoxicity against human SK-MEL-5 cells at 10 uM after 48 hrs by SRB assay; type: functional; details: SK-MEL-5, 48 h, read-out: GI
[19] = Cytotoxicity against human SF268 cells at 10 uM after 48 hrs by SRB assay; type: functional; details: SF-268, 48 h, read-out: GI
[20] = Cytotoxicity against human Caki1 cells at 10 uM after 48 hrs by SRB assay; type: functional; details: CAKI-1, 48 h, read-out: GI
NCI-H322M = assay: Cytotoxicity against human NCI-H322M cells at 10 uM after 48 hrs by SRB assay; type: functional; details: read-out: GI
[21] = Cytotoxicity against human HCT116 cells at 10 uM after 48 hrs by SRB assay; type: functional; details: HCT-116, 48 h, read-out: GI
[22] = Cytotoxicity against human SF539 cells at 10 uM after 48 hrs by SRB assay; type: functional; details: SF-539, 48 h, read-out: GI
[23] = Cytotoxicity against human SNB75 cells at 10 uM after 48 hrs by SRB assay; type: functional; details: SNB-75, 48 h, read-out: GI
[24] = Cytotoxicity against human COLO205 cells at 10 uM after 48 hrs by SRB assay; type: functional; details: COLO 205, 48 h, read-out: GI
[25] = Cytotoxicity against human Hs 578T cells at 10 uM after 48 hrs by SRB assay; type: functional; details: read-out: GI
[26] = Cytotoxicity against human RXF393 cells at 10 uM after 48 hrs by SRB assay; type: functional; details: RXF 393, 48 h, read-out: GI

For `Cc1nc2cc(Nc3nc(Nc4ccc(F)cc4)nc(N4CCN(C)CC4)n3)ccc2n1Cc1ccccc1`, the inhibition of growth at 10 µM (NCI-H460) was 96.6%, the GI50 (A549) was 1.84 µM and the LC50 (A549) was 7.52 µM. For the same compound, the TGI (A549) was 3.86 µM, the “growth inhibition (GI)” value (SK-MEL-2) was “Active” and the LC50 (concentration killing 50% of cells) (SR [1]) was 8.47 µM. The “growth inhibition (GI)” value (MDA-MB-231) was “Active”, the inhibition of growth at 10 µM (MCF7 [2]) was 82.1% and the GI50 [3] was 1.77 µM. For the same compound, the LC50 (concentration killing 50% of cells) [3] was 10.8 µM, the TGI [3] was 3.94 µM and the LC50 [4] was 20.5 µM. For the same compound, the GI50 [4] was 1.89 µM, the TGI [4] was 4.38 µM and the “growth inhibition (GI)” value (NCI-H522) was “Active”. The LC50 (K562 [5]) was 8.47 µM, the Ka (Calf thymus DNA [6]) was 3.36 ×10⁴ /M and the CC50 [7] was 8.47 µM. For the same compound, the inhibition of growth at 10 µM (ACHN) was 90.3%, the inhibition of growth at 10 µM [8] was 98.9% and the inhibition of growth at 10 µM [9] was 75.4%. It also gave an inhibition of growth at 10 µM (KM12) of 83%, an IC50 (Dihydrofolate reductase) of 0.31 µM and an inhibition of growth at 10 µM [10] of 84.4%. It also gave a GI50 (MCF7 [11]) of 1.61 µM, an LC50 (concentration killing 50% of cells) (MCF7 [11]) of 7.54 µM and a TGI (MCF7 [11]) of 3.6 µM. The CC50 [12] was 8.47 µM, the inhibition of growth at 10 µM (K562 [13]) was 99.6% and the “growth inhibition (GI)” value (T47D) was “Active”. For the same compound, the inhibition of growth at 10 µM (A498; A498, 48 h, read-out: GI) was 70.8%, the Tm (Calf thymus DNA [14]) was 65.6 °C and the “growth inhibition (GI)” value (Malme-3M) was “Active”. For the same compound, the “growth inhibition (GI)” value (SR [15]) was “Active”, the inhibition of growth at 10 µM [16] was 57.1% and the “growth inhibition (GI)” value (MDA-MB-468) was “Active”. The “growth inhibition (GI)” value (HT-29) was “Active”, the inhibition of growth at 10 µM [17] was 97.5% and the “growth inhibition (GI)” value (786-0) was “Active”. For the same compound, the inhibition of growth at 10 µM [18] was 99.4%, the inhibition of growth at 10 µM (SK-MEL-5) was 29.1% and the inhibition of growth at 10 µM [19] was 85.4%. The inhibition of growth at 10 µM [20] was 81.4%.
Work on `Cc1nc2ccc(Nc3nc(NCCN4CCOCC4)nc(Nc4ccc(F)cc4)n3)cc2n1Cc1ccccc1` yielded an inhibition of growth at 10 µM (NCI-H460) of 70.6%, a GI50 (A549) of 3.21 µM and an LC50 (A549) of 38.5 µM. It also gave a TGI (A549) of 18.5 µM, an inhibition of growth at 10 µM (NCI-H322M) of 35.9% and an LC50 (concentration killing 50% of cells) (SR [1]) of 55 µM. The inhibition of growth at 10 µM (MDA-MB-231; MDA-MB-231, 48 h, read-out: GI) was 66.7%, the inhibition of growth at 10 µM (MCF7 [2]) was 66.4% and the GI50 [3] was 2.72 µM. For the same compound, the LC50 (concentration killing 50% of cells) [3] was 15.3 µM, the TGI [3] was 12 µM and the LC50 [4] was 62.5 µM. For the same compound, the GI50 [4] was 4.41 µM, the TGI [4] was 43.9 µM and the inhibition of growth at 10 µM [21] was 72.1%. The inhibition of growth at 10 µM (NCI-H522; NCI-H522, 48 h, read-out: GI) was 41.3%, the LC50 (K562 [5]) was 55 µM and the Ka (Calf thymus DNA [6]) was 8.58 ×10⁴ /M. It also gave a CC50 [7] of 55 µM, an inhibition of growth at 10 µM (ACHN) of 47.8% and an inhibition of growth at 10 µM [8] of 77.3%. For the same compound, the inhibition of growth at 10 µM [9] was 31%, the inhibition of growth at 10 µM [22] was 70.2% and the inhibition of growth at 10 µM (KM12) was 56.6%. The IC50 (Dihydrofolate reductase) was 0.002 µM, the inhibition of growth at 10 µM [23] was 49.4% and the inhibition of growth at 10 µM [10] was 57.6%. It also gave a GI50 (MCF7 [11]) of 2.04 µM, an LC50 (concentration killing 50% of cells) (MCF7 [11]) of 20.6 µM and a TGI (MCF7 [11]) of 8.99 µM. It also gave a CC50 [12] of 55 µM, an inhibition of growth at 10 µM (K562 [13]) of 97% and an inhibition of growth at 10 µM (T47D; read-out: GI) of 47%. The inhibition of growth at 10 µM [24] was 98.8%, the “growth inhibition (GI)” value (A498) was “Active” and the inhibition of growth at 10 µM [25] was 59.4%. For the same compound, the Tm (Calf thymus DNA [14]) was 80.1 °C, the “growth inhibition (GI)” value (Malme-3M) was “Active” and the inhibition of growth at 10 µM (SR [15]; read-out: GI) was 99.8%. The inhibition of growth at 10 µM [16] was 15.9%, the inhibition of growth at 10 µM (MDA-MB-468; MDA-MB-468, 48 h, read-out: GI) was 86% and the “growth inhibition (GI)” value (HT-29) was “Active”. The inhibition of growth at 10 µM [17] was 69.7%, the inhibition of growth at 10 µM (786-0; 786-0, 48 h, read-out: GI) was 95.8% and the inhibition of growth at 10 µM [26] was 88%. For the same compound, the inhibition of growth at 10 µM [18] was 49.9%, the inhibition of growth at 10 µM (SK-MEL-5) was 85.8% and the inhibition of growth at 10 µM [19] was 37.2%. The inhibition of growth at 10 µM [20] was 44.4%.
